Experiments:
Format in all cases: cell-based
[1] = target: T1, KRAS G12D (Homo sapiens, UniProt P01116, G12D); test: KRAS G12D HiBit assay; conditions: AsPc-1-KRAS (G12D)-HiBit-KI cell, compound treatment for 24 hours, absolute DC50
T1 construct: AsPc-1-KRAS (G12D)-HiBit-KI cell (Pharmaron); host or cells: AsPc-1-KRAS (G12D)-HiBit-KI cells (HiBiT knock-in at the endogenous KRAS locus)
In short: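 Cells were treated for 24 h with compounds in a 3-fold, 10-point dilution series from a 0.3 mM DMSO stock, then equilibrated 15 min at room temperature. KRAS G12D HiBiT levels were read by luminescence after lytic Nano-Glo HiBiT reagent with LgBiT; inhibition calculated relative to 0.1% DMSO high control.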

[2] = target: T2, KRAS G12V (Homo sapiens, UniProt P01116, G12V); test: KRAS G12V HiBit assay; conditions: SW620-KRAS (G12V)-HiBit-KI cells, compound treatment for 24 hours
T2 construct: SW620-KRAS (G12V)-HiBit-KI cell (Pharmaron); host or cells: SW620-KRAS (G12V)-HiBit-KI cells (HiBiT knock-in at the endogenous KRAS locus)
T2 sequence (P01116 1-188 isoform P01116-2 G12V): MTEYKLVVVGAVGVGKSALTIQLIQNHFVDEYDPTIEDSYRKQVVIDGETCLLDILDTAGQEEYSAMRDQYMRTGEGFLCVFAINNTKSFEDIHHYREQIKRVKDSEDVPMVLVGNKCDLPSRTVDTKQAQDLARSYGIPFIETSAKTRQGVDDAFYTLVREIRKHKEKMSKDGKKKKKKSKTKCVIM
In short: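 HiBiT-tagged KRAS G12V cells treated 24 h with compound in a 3-fold, 10-point series (0.3 mM DMSO stock); lytic HiBiT reagent with LgBiT added after 15 min room-temperature equilibration. Degradation calculated against 0.1% DMSO high control.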

[3] = target: T3, KRAS (Homo sapiens, UniProt P01116); test: KRASamp MSD assay; conditions: KE39 (KRAS amplified) cells, treated with test compounds for 24 hr, MSD readout of KRAS degradation
T3 construct: endogenous in cells; host or cells: KE39 (KRAS amplified) cells
T3 sequence (P01116 1-188 isoform P01116-2): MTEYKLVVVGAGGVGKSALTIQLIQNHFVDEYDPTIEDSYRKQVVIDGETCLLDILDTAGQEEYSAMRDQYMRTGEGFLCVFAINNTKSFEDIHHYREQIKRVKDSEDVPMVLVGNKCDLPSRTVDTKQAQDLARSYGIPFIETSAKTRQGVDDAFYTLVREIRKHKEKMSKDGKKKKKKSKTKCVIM
In short: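 KRAS-amplified KE39 cells treated with compound for 24 hr, then lysed in RIPA buffer with protease/phosphatase inhibitors. KRAS protein measured by MSD sandwich immunoassay against a recombinant WT KRAS standard curve; DC50 derived from curve fitting of degradation.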

[4] = numeric bounds given in place of class symbols

T1 sequence (P01116 1-188 isoform P01116-2 G12D): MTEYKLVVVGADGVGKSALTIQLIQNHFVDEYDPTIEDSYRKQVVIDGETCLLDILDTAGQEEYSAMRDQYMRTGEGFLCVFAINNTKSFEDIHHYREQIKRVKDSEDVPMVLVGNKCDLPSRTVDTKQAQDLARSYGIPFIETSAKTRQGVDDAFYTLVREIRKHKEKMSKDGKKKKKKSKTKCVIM

Compound	DC50 ([1]; class symbols) [nM]	DC50 ([2]; class symbols) [nM]	DC50 [3] [nM]	DC50 [1, 4] [nM]	DC50 ([2]; numeric bounds) [nM]
CCc1c(F)ccc2cc(O)cc(-c3ncc4c(N5CCC[C@@](C)(O)C5)nc(OC[C@]56CCCN5[C@H](COC(=O)N5CCC(CCCOc7ccc8c(c7)n(C)c(=O)n8C7CCC(=O)NC7=O)CC5)CC6)nc4c3F)c12 (stereo partly drawn) [Compound 302, ((3S,7aR)-7a-(((7-(8-ethyl-7-fluoro-3-hydroxynaphthalen-1-yl)-8-fluoro-4-((R)-3-hydroxy-3-methylpiperidin-1-yl)pyrido[4,3-d]pyrimidin-2-yl)oxy)methyl)hexahydro-1H-pyrrolizin-3-yl)methyl 4-(3-((1-(2,6-dioxopiperidin-3-yl)-3-methyl-2-oxo-2,3-dihydro-1H-benzo[d]imidazol-5-yl)oxy)propyl)piperidine-1-carboxylate]	–	< 10	< 1	> 100	–
CCc1c(F)ccc2cc(O)cc(-c3ncc4c(N5CCC[C@](C)(O)C5)nc(OC[C@]56CCCN5[C@@H](COC(=O)N5CC7CCC(C5)C7CN5CCC(c7ccc8c(c7)n(C)c(=O)n8C7CCC(=O)NC7=O)CC5)CC6)nc4c3F)c12 (stereo partly drawn) [Compound 391, ((3R,7aR)-7a-(((7-(8-ethyl-7-fluoro-3-hydroxynaphthalen-1-yl)-8-fluoro-4-((S)-3-hydroxy-3-methylpiperidin-1-yl)pyrido[4,3-d]pyrimidin-2-yl)oxy)methyl)hexahydro-1H-pyrrolizin-3-yl)methyl 8-((4-(1-(2,6-dioxopiperidin-3-yl)-3-methyl-2-oxo-2,3-dihydro-1H-benzo[d]imidazol-5-yl)piperidin-1-yl)methyl)-3-azabicyclo[3.2.1]octane-3-carboxylate]	< 100	< 10	< 1	–	–
C#Cc1c(F)ccc2cc(O)cc(-c3ncc4c(N5CCC[C@@](C)(O)C5)nc(OC[C@@]56CCCN5[C@H](COC(=O)N5CCC7(CC5)CC(N5CCC(c8cccc9c8n(C)c(=O)n9C8CCC(=O)NC8=O)CC5)C7)CC6)nc4c3F)c12 (stereo partly drawn) [Compound 387, ((3S,7aS)-7a-(((7-(8-ethynyl-7-fluoro-3-hydroxynaphthalen-1-yl)-8-fluoro-4-((R)-3-hydroxy-3-methylpiperidin-1-yl)pyrido[4,3-d]pyrimidin-2-yl)oxy)methyl)hexahydro-1H-pyrrolizin-3-yl)methyl 2-(4-(1-(2,6-dioxopiperidin-3-yl)-3-methyl-2-oxo-2,3-dihydro-1H-benzo[d]imidazol-4-yl)piperidin-1-yl)-7-azaspiro[3.5]nonane-7-carboxylate]	< 100	< 10	≥ 10	–	–
CCc1cccc2cc(O)cc(-c3cc4nc(OC[C@@]56CCCN5[C@H](COC(=O)N5CCC(CN7CCC(c8ccc9c(c8)n(C)c(=O)n9C8CCC(=O)NC8=O)CC7)CC5)CC6)nc(N5CCC[C@@](C)(O)C5)c4cn3)c12 (stereo partly drawn) [Compound 378, ((3S,7aS)-7a-(((7-(8-ethyl-3-hydroxynaphthalen-1-yl)-4-((R)-3-hydroxy-3-methylpiperidin-1-yl)pyrido[4,3-d]pyrimidin-2-yl)oxy)methyl)hexahydro-1H-pyrrolizin-3-yl)methyl 4-((4-(1-(2,6-dioxopiperidin-3-yl)-3-methyl-2-oxo-2,3-dihydro-1H-benzo[d]imidazol-5-yl)piperidin-1-yl)methyl)piperidine-1-carboxylate]	< 100	< 10	< 1	–	–
C#Cc1c(F)ccc2cc(O)cc(-c3ncc4c(N5CCC[C@@](C)(O)C5)nc(OC[C@@]56CCCN5[C@H](COC(=O)N5CCC7(CCC(CN8CCC(c9ccc%10c(c9)n(C)c(=O)n%10C9CCC(=O)NC9=O)CC8)CC7)CC5)CC6)nc4c3F)c12 (stereo partly drawn) [Compound 321, ((3S,7aS)-7a-(((7-(8-ethynyl-7-fluoro-3-hydroxynaphthalen-1-yl)-8-fluoro-4-((R)-3-hydroxy-3-methylpiperidin-1-yl)pyrido[4,3-d]pyrimidin-2-yl)oxy)methyl)hexahydro-1H-pyrrolizin-3-yl)methyl 9-((4-(1-(2,6-dioxopiperidin-3-yl)-3-methyl-2-oxo-2,3-dihydro-1H-benzo[d]imidazol-5-yl)piperidin-1-yl)methyl)-3-azaspiro[5.5]undecane-3-carboxylate]	< 100	< 10	1 to 10	–	–

Continued, values first:

DC50 ([1]; class symbols) [nM]	DC50 ([2]; class symbols) [nM]	DC50 [3] [nM]	DC50 [1, 4] [nM]	DC50 ([2]; numeric bounds) [nM]	Compound
< 100	< 10	< 1	–	–	CCc1c(F)ccc2cc(O)cc(-c3ncc4c(N5CCCCC5)nc(OC[C@@]56CCCN5[C@H](CN5CCC(CN7CCC(c8ccc9c(c8)n(C)c(=O)n9C8CCC(=O)NC8=O)CC7)CC5)CC6)nc4c3F)c12 (stereo partly drawn) [Compound 379, 3-(5-(1-((1-(((3S,7aS)-7a-(((7-(8-ethyl-7-fluoro-3-hydroxynaphthalen-1-yl)-8-fluoro-4-(piperidin-1-yl)pyrido[4,3-d]pyrimidin-2-yl)oxy)methyl)hexahydro-1H-pyrrolizin-3-yl)methyl)piperidin-4-yl)methyl)piperidin-4-yl)-3-methyl-2-oxo-2,3-dihydro-1H-benzo[d]imidazol-1-yl)piperidine-2,6-dione]
–	> 100	1 to 10	> 100	–	CCc1c(F)ccc2cc(O)cc(-c3ncc4c(N5CCC[C@@](C)(O)C5)nc(OC[C@]56CCCN5[C@H](COC(=O)N5CCC(Oc7ccc8c(c7)n(C)c(=O)n8C7CCC(=O)NC7=O)CC5)CC6)nc4c3F)c12 (stereo partly drawn) [Compound 330, ((3S,7aR)-7a-(((7-(8-ethyl-7-fluoro-3-hydroxynaphthalen-1-yl)-8-fluoro-4-((R)-3-hydroxy-3-methylpiperidin-1-yl)pyrido[4,3-d]pyrimidin-2-yl)oxy)methyl)hexahydro-1H-pyrrolizin-3-yl)methyl 4-((1-(2,6-dioxopiperidin-3-yl)-3-methyl-2-oxo-2,3-dihydro-1H-benzo[d]imidazol-5-yl)oxy)piperidine-1-carboxylate]
100 to 300	–	1 to 10	–	> 75.7	C#Cc1c(F)ccc2cccc(-c3ncc4c(N5CCC[C@@](C)(O)C5)nc(OC[C@@]56CCCN5[C@H](COC(=O)N5CCC(CN7CCC(c8cccc9c8n(C)c(=O)n9C8CCC(=O)NC8=O)CC7)CC5)CC6)nc4c3F)c12 (stereo partly drawn) [Compound 137]
< 100	10 to 100	< 1	–	–	CCc1c(F)ccc2cc(O)cc(-c3ncc4c(N5CCC[C@@](C)(O)C5)nc(OC[C@@]56CCCN5[C@H](COc5ccc(CN7CCC(c8ccc9c(c8)n(C)c(=O)n9C8CCC(=O)NC8=O)CC7)cc5)CC6)nc4c3F)c12 (stereo partly drawn) [Compound 458, 3-(5-(1-(4-(((3S,7aS)-7a-(((7-(8-ethyl-7-fluoro-3-hydroxynaphthalen-1-yl)-8-fluoro-4-((R)-3-hydroxy-3-methylpiperidin-1-yl)pyrido[4,3-d]pyrimidin-2-yl)oxy)methyl)hexahydro-1H-pyrrolizin-3-yl)methoxy)benzyl)piperidin-4-yl)-3-methyl-2-oxo-2,3-dihydro-1H-benzo[d]imidazol-1-yl)piperidine-2,6-dione]
< 100	< 10	1 to 10	–	–	CCc1c(F)ccc2cc(O)cc(-c3ncc4c(N5CCC[C@@](C)(O)C5)nc(OC[C@@]56CCCN5[C@H](COC(=O)N5CCC(OCCC#Cc7cccc8c7n(C)c(=O)n8C7CCC(=O)NC7=O)CC5)CC6)nc4c3F)c12 (stereo partly drawn) [Compound 370, ((3S,7aS)-7a-(((7-(8-Ethyl-7-fluoro-3-hydroxynaphthalen-1-yl)-8-fluoro-4-((R)-3-hydroxy-3-methylpiperidin-1-yl)pyrido[4,3-d]pyrimidin-2-yl)oxy)methyl)hexahydro-1H-pyrrolizin-3-yl)methyl4-((4-(1-(2,6-dioxopiperidin-3-yl)-3-methyl-2-oxo-2,3-dihydro-1H-benzo[d]imidazol-4-yl)but-3-yn-1-yl)oxy)piperidine-1-carboxylate]
